Results reported in US10336768B2, “Pyrimidine compounds and methods using the same” (Yuma Therapeutics, Inc., priority 2014, dated 2019).
Converted amounts (≈) assume the structure as drawn. “And” between values parts separate entries of the source, which are not always exact repeats. Equal values may be shown once. Read-outs that look alike come from different tables or passages of the source. Marks after values point to notes of the source that are not given here.

What was measured:
[1] = Mouse pharmacokinetics, plasma levels (LC-MS/MS); type: in vivo; conditions: for AUC(0-t): read-out: AUC(0-8 h); for half-life: read-out: Half life (t1/2) (converted)
Description: Plasma and brain samples were taken pre-dose and at post dose time points of pre-dose, 15 and 30 minutes, 1, 2, and 8 hours. The pre-dose group was represented by 5 animals, whereas the post-dose groups were represented by 3 animals.
Bioanalysis of mouse plasma samples for compound 20 was conducted by protein precipitation and LC-MS/MS with compound 22 as the internal standard. The method was based on a ‘generic assay’ and some method development was conducted to tailor that assay to the particular compound and internal standard. The eventual non-GLP assay was first tested by analyzing a bioanalytical run with spiked mouse plasma samples. The qualification run passed by the run acceptance criteria (see below). Bioanalysis was then conducted of plasma sample extracts and of brain sample homogenate extracts, using a calibration and quality control samples spiked in mouse plasma. The assay is described below.
Compound 20 and compound 22 were extracted from the mouse plasma matrix by protein precipitation. To 20.0 μL of sample was added 10.0 μL of internal standard working solution (1000 ng/mL in MeOH) and 200 μL of MeCN. The mixture was vortexed (5 sec) and centrifuged (14000 rpm, 5 min). The supernatant was then recovered and evaporated to dryness. The residue was redissolved in 100 μL of redissolving solution (80:20 v:v of mobile phases A:B). For analysis, 20.0 μL was injected in to the LC-MS/MS system.
All chromatography was done with a type 1100 liquid chromatograph (Agilent), equipped with an auto-injector. The analytical column was an Xbridge C18 3.5 μm 2.1×50 mm (Waters), employed at 50° C. The mobile phase was a gradient, composed of solvent A:1 g/L ammonium acetate in Milli-Q water, and solvent B: MeCN.
All experiments were done on an API 3000 triple quadrupole instrument (AB Sciex), operated in positive turbo-ionspray mode (‘TIS+’). The instrument parameters had been optimized during method development.
[…] Two sets of calibration samples were used, one set placed before and the other placed after the study samples. In addition, QC samples at 5 levels (two samples at each level) were included in the run, as performance indicators and for run acceptance.
Evaluation of pharmacokinetic parameters was conducted by calculation from the mean concentration (n=5 pre-dose, n=3 post-dose) at each time point.

[2] = Solubility in pH 7.4 buffer; type: physicochemical; conditions: pH 7.4, aqueous buffer, pH of 7.4
Description: Compound solubility was determined in pH 7.4 buffer. Aqueous solubility of greater than or equal to about 0.5 μM (e.g., greater than or equal to about 1 μM, greater than or equal to about 2 μM, greater than or equal to about 5 μM, greater than or equal to about 10 μM, greater than or equal to about 20 μM, or greater than or equal to about 30 μM) may indicate a compound having acceptable solubility for medical use, e.g., for treatment of a neurodegenerative disorder.

[3] = mouse, plasma, Table 11, footnote: excluding IRN12 result
[4] = mouse, plasma, Table 12, footnote: including IRN12 result

SMILES: Nc1nc(-c2c(Cl)cc(Cl)c3c2CCO3)c2[nH]ccc2n1 [compound 20, 4-(5,7-Dichloro-2,3-dihydrobenzofuran-4-yl)-5H-pyrrolo[3,2-d]pyrimidin-2-amine]
- Mean Group Concentration, plasma ([1]; 0.25 h): ^a Excluding IRN 12 result: 14950 ng/mL
- Plasma concentration, individual animals ([1]; 15 minutes post dose (B_0.25), values above 8000 ng/mL out of range, indicative): 17,900 ^b ng/mL and 12,000 ^b ng/mL
- Plasma concentration, individual animals ([1]; 30 minutes post dose (C_0.5), out of range (>8000 ng/mL), indicative): 11,500 ^b ng/mL and 10,500 ^b ng/mL and 11,100 ^b ng/mL
- Plasma concentration, individual animals ([1]; 1 hour post dose (D_1)): 7,130 ng/mL and 7,470 ng/mL
- Plasma concentration, individual animals ([1]; 2 hours post dose (E_2)): 4,180 ng/mL and 4,440 ng/mL
- Plasma concentration, individual animals ([1]; 8 hours post dose (F_8)): 99.3 ng/mL and 22.5 ng/mL and 21.9 ng/mL
- Kelimination ([1]; Table 11, footnote: excluding IRN12 result): 0.725 per hour (h^−1)
- Kelimination ([1]; Table 12, footnote: including IRN12 result): 0.730 per hour (h^−1)
- concentration at 0.25 h ([1]; mouse, plasma, 0.25 h, n=3 incl. IRN 12, read-out: Mean Group Concentration, plasma): 9970 ng/mL
- concentration at 15 min ([1]; mouse, plasma, 15 minutes post dose (B_0.25), values above 8000 ng/mL out of range, indicative, read-out: Plasma concentration, individual animals): 2.66 ng/mL
- concentration at 0.5 h ([1]; mouse, plasma, 0.50 h, read-out: Mean Group Concentration, plasma): 11000 ng/mL
- concentration at 1 h ([1]; mouse, plasma, 1.00 h, read-out: Mean Group Concentration, plasma): 7160 ng/mL
- concentration at 1 h ([1]; mouse, plasma, 1 hour post dose (D_1), read-out: Plasma concentration, individual animals): 6890 ng/mL
- concentration at 2 h ([1]; mouse, plasma, 2.00 h, read-out: Mean Group Concentration, plasma): 4260 ng/mL
- concentration at 2 h ([1]; mouse, plasma, 2 hours post dose (E_2), read-out: Plasma concentration, individual animals): 4150 ng/mL
- concentration at 8 h ([1]; mouse, plasma, 8.00 h, read-out: Mean Group Concentration, plasma): 47.9 ng/mL
- AUC(0-inf) [1, 3]: 27100 ng·h/mL
- Cmax [1, 3]: 11000 ng/mL
- Tmax [1, 3]: 30 min
- AUC(0-t) [1, 3]: 27000 ng·h/mL
- half-life [1, 3]: 57.6 min
- AUC(0-inf) [1, 4]: 28300 ng·h/mL
- Cmax [1, 4]: 15000 ng/mL
- Tmax [1, 4]: 15 min
- AUC(0-t) [1, 4]: 28300 ng·h/mL
- half-life [1, 4]: 57 min
- solubility [2]: 30 µM (≈ 9.64 µg/mL)
